# Patent US9545385B2, “Inhibitors of hemeprotein-catalyzed lipid peroxidation” (VANDERBILT UNIVERSITY, priority 2013, dated 2017)
# Legend:
# COX-1 = COX-1 (Homo sapiens, UniProt P23219); test: Inhibition of COX-1-catalyzed oxidation of arachidonic acid (Example 6); assay type: biochemical
# Method: (§1) The inhibition of the lipid peroxidation produced by myoglobin (Mb) and COX-1 by the different analogs was tested. Values represent the IC50 for each hemeprotein and are expressed as means±S.E.M. a: value reported from (1.). b: value reported from (3).
# myoglobin (Mb) = biological target: T1, myoglobin (Mb) (Homo sapiens, UniProt P02144); test: Inhibition of myoglobin-induced oxidation of arachidonic acid; assay type: biochemical; details: among ApAP and analogs 12-14
# T1 sequence (P02144 1-154): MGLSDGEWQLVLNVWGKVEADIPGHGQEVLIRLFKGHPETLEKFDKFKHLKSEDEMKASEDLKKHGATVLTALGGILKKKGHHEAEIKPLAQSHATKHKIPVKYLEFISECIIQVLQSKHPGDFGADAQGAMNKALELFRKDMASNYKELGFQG
# Method: as §1
# [1] = Direct cellular toxicity (total cellular ATP levels); assay type: cell-based; details: human, HepG2 cells, read-out: Cellular Toxicity (EC50, μM ± SD)
# Source text: Values represent means±S.E.M.
# Microsomal stability = details: % of unmodified compound remaining after reaction; human liver microsomes
# [2] = Antioxidant rate constant kinh in chemical tests, relative to α-TOH
# Source text: Antioxidants, most commonly substituted phenols, effectively intercept peroxyls by transferring the phenolic H-atom to a propagating peroxyl radical, with a rate constant kinh that is faster than that of chain propagation. The most famous example of a phenolic antioxidant is vitamin E (α-toco-pherol, α-TOH) nature's hydrophobic defense against radical chain oxidation.
# Compounds of the present invention have a higher kinh and serve as better antioxidants than α-TOH in chemical tests. The critical antioxidant step is shown in Equation 1, the larger the kinh, the better the antioxidant. The simple pyridinol 2a shown below is nearly 5 times better than α-TOH as an antioxidant and the bicyclic compounds 3a and 4a are over 20 times better than the vitamin. […]
# HepG2 liver cell line = tested on: HepG2 liver cell line
# Method: HepG2 were plated in multiple 96-well plates at 2×10^4 cells per well and pretreated with ethanol 100 μM for 2 hours. […] Cell viability after 24 h was determined by measuring ATP levels by luminescence assay.
# ferryl myoglobin = biological target: T2, ferryl myoglobin (Homo sapiens, UniProt P02144); test: Reduction of ferryl myoglobin to ferric myoglobin; assay type: biochemical; details: compared with acetaminophen
# T2 sequence (P02144 1-154): T1 sequence (P02144 1-154)
# Method: Ferryl myoglobin was generated by incubating ferric myoglobin 10 μM in PBS with 10 μM hydrogen peroxide until there was no more change in the peak at 421 nm. At this time, the analogs were added to the cuvette at the final concentrations indicated and spectra were recorded every 15 sec for 2 min. The initial rate of reduction was calculated as the variation of absorbance at 409 nm in the first two minutes after adding the analogs. In this period of time the rates of reduction were linear for each concentration of analog.
# [3] = tested on: rat model of rhabdomyolysis; test: Rat model of rhabdomyolysis (myoglobin-catalyzed lipid peroxidation, renal failure); assay type: in vivo; details: dose giving plasma levels in the human therapeutic range
# PGHS-2 (COX-2) = biological target: T3, PGHS-2 (COX-2) (Homo sapiens, UniProt P35354); test: Inhibition of hematin-reconstituted COX-2, [14C] arachidonic acid oxidation; assay type: biochemical; details: compared with PGHS-1
# T3 sequence (P35354 18-604): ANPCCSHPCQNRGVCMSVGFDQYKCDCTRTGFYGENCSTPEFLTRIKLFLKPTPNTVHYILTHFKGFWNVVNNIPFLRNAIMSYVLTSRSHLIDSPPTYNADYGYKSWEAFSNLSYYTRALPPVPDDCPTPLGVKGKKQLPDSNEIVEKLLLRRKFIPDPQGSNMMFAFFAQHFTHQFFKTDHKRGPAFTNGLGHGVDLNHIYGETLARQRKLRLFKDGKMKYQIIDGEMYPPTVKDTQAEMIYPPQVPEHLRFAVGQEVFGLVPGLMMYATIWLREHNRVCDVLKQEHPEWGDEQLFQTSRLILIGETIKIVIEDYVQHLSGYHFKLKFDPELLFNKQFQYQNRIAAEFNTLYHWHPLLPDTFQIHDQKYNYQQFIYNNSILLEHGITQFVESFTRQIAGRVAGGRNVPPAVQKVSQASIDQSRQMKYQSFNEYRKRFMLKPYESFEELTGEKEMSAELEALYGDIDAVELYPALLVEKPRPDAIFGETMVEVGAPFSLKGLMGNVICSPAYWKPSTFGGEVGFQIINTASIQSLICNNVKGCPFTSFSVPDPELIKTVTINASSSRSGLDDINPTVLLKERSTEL
# Method: Hematin-reconstituted COX-1 (5.4 nM) or COX-2 (10.8 nM) in Tris HCl 100 mM, pH 8.0, 500 μM phenol, was pre-incubated with N-dimethyl pyrimidinol (DM, plain line) or N-dimethyl pyridinol (DR, dashed line) at varying concentrations at 37° C. for 20 minutes. At this time the reaction was initiated by addition of 0.5 μM of [14C] arachidonic acid. After 8 seconds, the reaction was stopped by adding an ice cold mixture of diethyl ether/methanol/4.0 M citric acid. PGHS-1 activity was expressed as percent oxidation of arachidonic acid compared with control where no inhibitor was added. Each data point represents the mean±S.E.M of six values.
# Sequence of COX-1 (P23219 24-599, species assumed): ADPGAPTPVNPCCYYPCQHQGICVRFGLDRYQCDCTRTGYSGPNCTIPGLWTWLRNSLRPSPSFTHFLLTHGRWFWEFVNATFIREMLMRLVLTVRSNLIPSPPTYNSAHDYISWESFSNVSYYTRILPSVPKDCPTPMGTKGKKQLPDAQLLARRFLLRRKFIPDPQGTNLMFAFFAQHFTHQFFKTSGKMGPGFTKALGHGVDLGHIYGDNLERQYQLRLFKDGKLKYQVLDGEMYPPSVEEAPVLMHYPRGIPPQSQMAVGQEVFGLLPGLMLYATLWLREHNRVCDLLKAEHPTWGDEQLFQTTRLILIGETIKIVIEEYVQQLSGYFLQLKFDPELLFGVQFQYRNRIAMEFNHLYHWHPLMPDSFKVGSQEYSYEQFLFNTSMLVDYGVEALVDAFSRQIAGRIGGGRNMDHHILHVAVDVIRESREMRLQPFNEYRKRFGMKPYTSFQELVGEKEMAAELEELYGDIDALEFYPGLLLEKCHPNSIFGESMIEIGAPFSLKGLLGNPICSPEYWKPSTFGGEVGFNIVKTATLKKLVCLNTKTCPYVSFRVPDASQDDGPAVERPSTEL
smiles,measurement,setting,value
Cc1nc2c(c(C)c1O)COC(=O)N2 [Analog 14],rank in inhibiting COX-1 activity,COX-1; among ApAP and analogs 12-14,most potent
same,rank in inhibiting myoglobin-induced arachidonic oxidation,myoglobin (Mb),least potent
same,EC50 at 24 h,[1],> 5000 µM
same,Microsomal stability % left,Microsomal stability,97 ± 3%
Cc1cc(N(C)C)nc(C)c1O [Analog 2a],"antioxidant potency, times better than α-TOH",[2],~5 times
Cc1nc2c(c(C)c1O)CNC(=O)N2 [Analog 13],"inhibition of COX-1, in words",COX-1; at concentrations up to 1 mM,not able to significantly inhibit
same,EC50 at 24 h,[1],2960 ± 284 µM
same,Microsomal stability % left,Microsomal stability,87 ± 7%
"CN(C)c1ncc(O)cn1 [DM-Pym, 2-(dimethylamino)pyrimidin-5-ol]",cytotoxicity in ethanol-induced HepG2 model,HepG2 liver cell line,does not cause cytotoxicity
same,potency in reducing ferryl myoglobin,ferryl myoglobin,remarkably more potent than acetaminophen
"CC(=O)Nc1ccc(O)cc1 [ApAP, acetaminophen]",lipid peroxidation in rhabdomyolysis model,[3]; listed as Acetaminophen,blocked lipid peroxidation
same,renal failure in rhabdomyolysis model,[3]; listed as Acetaminophen,prevented the renal failure
same,lipid peroxidation in rhabdomyolysis model,[3]; listed as acetaminophen,blocks
same,renal failure in rhabdomyolysis model,[3]; listed as acetaminophen,blocks
same,EC50 at 24 h,[1],594 ± 147 µM
"CN(C)c1ccc(O)cn1 [DM-Pyr, 6-(dimethylamino) pyridin-3-ol]","inhibition of PGHS-2 (COX-2), in words",PGHS-2 (COX-2),only a weak inhibitor
O=C1NCc2cc(O)cnc2N1 [Analog 12],EC50 at 24 h,[1],4760 ± 36 µM
same,Microsomal stability % left,Microsomal stability,158 ± 33%
